The values that follow come from patent US9486475B2 (AMGEN RESEARCH (MUNICH) GMBH, priority 2013, dated 2016).

One data set relates to follicular lymphoma. As to the kind of experiment: Blinatumomab treatment of patient 109-036 (follicular lymphoma): CT tumor response. Type of data set: in vivo, human. As to conditions: Blinatumomab 5 μg/m^2/24 h for 1 week, then 60 μg/m^2/24 h, with PPS. On the procedure: (§1) Patient was then treated for 7 weeks at 60 μg/m^2/24 h of Blinatumomab.
(§2) 6× CHOP 12/02-04/03 • 2. Induction according to Dexa-BEAM Protocol 05/03 • 3. Autologous SCT 08/03 • Date of last prior treatment: 08/03 • Treatment start: 10.5.2010 • Major Involvement: • 1. Supraclavicular • 2. Mediastinal • 3. Mesenterial (small intestinal involvement?) • 4W CT: PR -63% • 8W CT: CRu:-79% • EOS: 30.7.2010
(FL: follicular lymphoma, SCT: stem cell therapy, PR: partial remission, Cru: complete remission (unconfirmed), EOS: end of study).

A further data set relates to B cell malignancies. As to conditions: human, in vivo; cited from earlier work.
Another data set deals with non-Hodgkin's lymphoma. As to conditions: cited from earlier work.
Data set [1] relates to neurological adverse effects caused by a CD3 binding domain. As to the kind of experiment: PPS co-treatment of patient 109-036 during Blinatumomab start and dose escalation: neurological adverse effects. Type of data set: in vivo, human. On the procedure:
as §1, §2

Setting [2] is: continuous administration, non-Hodgkin's lymphoma patients.

As to Blinatumomab, the “4W CT: change” value with follicular lymphoma (4 weeks) is recorded as -63%. Moreover, in the data set with follicular lymphoma (8 weeks), the “8W CT: change” value is -79% and the “8W CT: response category” value was “CRu”. In addition, in the data set with B cell malignancies, the “Patients with an early neurological reaction” value was 7 out of 22. In the data set with non-Hodgkin's lymphoma (setting [2]), the “Dose level at which partial and complete tumor regressions were first observed” value is given as 0.015 milligrams/m^2/d; the “Effect on tumor cells in bone marrow and liver” value is “clearance of tumor cells from bone marrow and liver”. For the same substance, in the data set with non-Hodgkin's lymphoma (dose level of 0.06 milligrams/m^2/d), the “Patients who experienced a tumor regression” value is on record as “all seven”. In addition, in the data set with non-Hodgkin's lymphoma (doses as low as 0.005 milligrams per square meter per day, continuous, four weeks), the “Effect on lymphoma target cells in blood” value is listed as “elimination of lymphoma target cells in blood”. Also, the “Neurological reactions in the clinical trial” value in the data set on non-Hodgkin's lymphoma (human, in vivo) is “neurological reactions have been found”.
Regarding “β-D-Xylan, (1-4), 2,3-bis(hydrogen sulphate) [PPS]”, the Apraxia and aphasia entry in data set [1] (patient 109-036, low B:T cell ratio, PPS 100 mg i.v. bolus 3 h before treatment start and before dose increase (day 8), then 300 mg/24 h for 48 h, Blinatumomab 5 then 60 μg/m^2/24 h) is recorded as “prevented”. Besides, in data set [1] (patient 109-036, PPS 100 mg i.v. bolus then 300 mg/24 h for 48 h, Blinatumomab escalation to 60 μg/m^2/24 h), the “Tremor (remaining neurological adverse effect)” value is reported as “slight tremor”.
